Numbered stars: 1 amine (or outer) side, 2 acyl side, 3 side chain; on linkers, the order of the positions; unused ones are H or OH. Bridge positions count the residues as written; N and C are the ends. Ends that are not written are not given here. Peptide text beside a SMILES is read from it. I, II: the chains in the order shown. CO(CH2CH2O)13CH2CH2CO = O=C(CCOCCOCCOCCOCCOCCOCCOCCOCCOCCOCCOCCOCCOCCC(=O)[*:2])[*:1]
What was measured:
[1] = target: T1, PDZ2 of PSD-95 (Homo sapiens, UniProt P78352); assay: FP heterologous competition binding assay; details: for Ki: FP competition, mean ± SEM, NA = no activity/affinity
T1 construct: PDZ2 (residues 155-249); made in house; host or cells: E. coli BL21-DE3 pLysS
Source text: (§1) Determined IC50 values may be converted to Ki values.^5 Suitable fluorophores include either 5-FAM or Cy5, which may be coupled to a tripeptide (KSG or CSG) linker attached to the N-terminus of the undecapeptide, to give 5-FAM-NR2B, Cy5-NR2B, 5-FAM-CRIPT and Cy5-CRIPT. The 5-FAM fluorophore may be attached to the undecapeptides by coupling with HATU. The Cy5 fluorophore may be conjugated to the undecapeptides by coupling Cy5-maleimide to the cysteine side chain of the tripeptide sequence CSG attached to the N-terminus of the peptide, as detailed in the Methodology section.
(§2) To measure the affinities between non-fluorescent peptides and PDZ domains, heterologous competition bindings assay were performed. This was done by adding increasing concentrations of peptide to a fixed concentration of Cy5-NR2B, 5-FAM-NR2B, Cy5-CRIPT or 5-FAM-CRIPT (50 nM) and PDZ (20 μM for PDZ1, 3 μM for PDZ2 and 1-2 and 5 μM for PDZ3) in the same TBS buffer and conditions as described above. FP values were then fitted to the general equation: Y=Bottom+(Top−Bottom)/[1[…](10̂^X-logIC50)], where X is the logarithmic value of peptide concentration. Hereby the IC50 value was obtained, which is used to calculate the theoretical competitive inhibition constant, Ki.^5
(§3) A convenient and reliable way to examine interactions between peptide analogues and PDZ domains is by using a fluorescence polarization (FP) assay. The three PDZ domains, PDZ1-3, of PSD-95 were expressed individually as set out above, while PDZ1-2 was also expressed as a tandem construct. […] IC50 values were then converted to Ki values.^5

[2] = target: T2, PDZ3 of PSD-95 (Homo sapiens, UniProt P78352); assay: FP heterologous competition binding assay
T2 construct: PDZ3 (residues 309-401); made in house; host or cells: E. coli BL21-DE3 pLysS
Source text: as §1, §2, §3

[3] = target: T3, PDZ1 of PSD-95 (Homo sapiens, UniProt P78352); assay: FP heterologous competition binding assay; details: for Ki: FP competition, mean ± SEM, NA = no activity/affinity
T3 construct: PSD-95 PDZ1 (residues 61-151); made in house; host or cells: E. coli BL21-DE3 pLysS
Source text: as §1, §2, §3

[4] = target: T4, PDZ1-2 tandem of PSD-95 (Homo sapiens, UniProt P78352); assay: FP heterologous competition binding assay; details: mean ± SEM
T4 construct: PDZ1-2 (residues 61-249) tandem; made in house; host or cells: E. coli BL21-DE3 pLysS
Source text: as §1, §2, §3

[5] = Human blood plasma stability assay; format: in vitro ADME; details: for half-life at […]: Blood plasma half life (T1/2)
Experimental: In this assay, the half-life (T1/2) of a compound in blood plasma is measured in vitro, whereby its susceptibility to degradation by proteases, peptidases and general plasma contents is quantified.
Compounds of interest were dissolved in human blood plasma (270 μl; 3H Biomedical, Sweden, cat no 1300-1-P50) to a concentration of 0.25 mM (30 μL of 2.5 mM) and incubated at 37° C. Aliquots (30 μl) were removed at various time intervals (0, 5, 10, 20, 40, 80, 160, 320, 960, 1280, 2550, 4560 and 7240 min) and quenched with 60 μL trichloroacetic acid (aq., 5%). The aliquots were vortexed, and incubated for at least 15 min, at 4° C. prior to centrifugation at 18,000 g for 2 min and the supernatant was analyzed by RP-HPLC to quantify the remaining compound (absorbance at 218 nm).

Molecule	Ki [1]	Ki [3]	Ki [4]	further results
KSGYEKLSSIESDV-OH [NR2B (1), reference compound]	4.1 ± 0.17 µM	18 ± 0.92 µM	7 ± 0.19 µM	affinity to PDZ3, in words ([2]; FP assay): no binding
CC[C@H](C)[C@H](NC(=O)CCOCCOCCOCCOCCOCCOCCOCCC(=O)N[C@H](C(=O)N[C@@H](CCC(=O)O)C(=O)N[C@@H](CO)C(=O)N[C@@H](CC(=O)O)C(=O)N[C@H](C(=O)O)C(C)C)[C@@H](C)CC)C(=O)N[C@@H](CCC(=O)O)C(=O)N[C@@H](CO)C(=O)N[C@@H](CC(=O)O)C(=O)N[C@H](C(=O)O)C(C)C [(IESDV)2PEG6 (77), (IESDV)2PEG6]	–	–	~0.1 µM	degradation in human blood plasma, in words [5]: no significant degradation could be detected over a time period of 6 days; half-life at […] ([5]; human, plasma): > 133 h
IESDV-PEG4 [IESDV-PEG4 (91)]	–	–	–	fold increase in half life compared to non-pegylated peptide 7 ([5]; human): about 10 fold; Blood plasma half life (T1/2) ([5]; human, plasma): 10 h
CC(C)[C@H](NC(=O)[C@H](CC(=O)O)NC(=O)[C@H](CO)NC(=O)[C@@H](N)CCC(=O)O)C(=O)O [ESDV (8), ESDV] (H-ESDV-OH; N-terminus and C-terminus assumed)	28 ± 0.92 µM	56 ± 2.4 µM	28 ± 2.9 µM	fold increase in Ki (loss of affinity) compared to NR2B peptide (1), PDZ2 [1]: 6.8 fold; fold increase in Ki (loss of affinity) compared to NR2B peptide (1), PDZ1 [3]: 3.1 fold
CC(C)[C@H](NC(=O)[C@H](C)NC(=O)[C@@H](NC(=O)[C@H](CCC(=O)O)NCCc1ccc(F)c(F)c1)C(C)O)C(=O)O (some centres unmarked) [Compound 62]	1 ± 0.043 µM	~1 µM	–	–
CC(C)[C@H](NC(=O)[C@H](C)NC(=O)[C@@H](NC(=O)[C@H](CCC(=O)O)NCC1CCCCC1)C(C)O)C(=O)O (some centres unmarked) [Compound 55, N-Cyclohexylmethyl-ETAV]	–	1 ± 0.24 µM	–	Ki ([2]; FP competition, mean ± SEM, NA = no activity/affinity): 21 ± 0.64 µM; fold increase in affinity (more potent) compared to NR2B peptide (1), PDZ1 [3]: ca. 19 fold
CC[C@H](C)[C@H](N)C(=O)N[C@@H](C)C(=O)N[C@H](C(=O)N(C)[C@@H](C)C(=O)N[C@H](C(=O)O)C(C)C)[C@@H](C)O [IATAMeV (89), IATAMeV]	–	–	–	half-life at […] ([5]; human, plasma): 0.533 h
SDV	–	–	–	fold increase in Ki (loss of affinity) compared to NR2B peptide (1), PDZ2 [1]: > 30 fold; fold increase in Ki (loss of affinity) compared to NR2B peptide (1), PDZ1 [3]: > 20 fold
CC(C)[C@H](NC(=O)[C@H](C)NC(=O)[C@@H](NC(=O)[C@H](CCC(=O)O)NCCc1ccc(Cl)c(Cl)c1)C(C)O)C(=O)O (some centres unmarked) [Compound 61]	1.1 ± 0.11 µM	–	–	–

Second part, led by results:

Ki [1]	Ki [3]	Ki [4]	Molecule	further results
13 ± 1.1 µM	–	1 ± 0.06 µM	CC[C@H](C)[C@H](NC(=O)CCOCCOCCOCCOCCOCCOCCOCCOCCOCCOCCOCCOCCOCCC(=O)N[C@H](C(=O)N[C@@H](C)C(=O)N[C@H](C(=O)N[C@@H](C)C(=O)N[C@H](C(=O)O)C(C)C)[C@@H](C)O)[C@@H](C)CC)C(=O)N[C@@H](C)C(=O)N[C@H](C(=O)N[C@@H](C)C(=O)N[C@H](C(=O)O)C(C)C)[C@@H](C)O [(IATAV)2PEG12 (87), (IATAV)2PEG12]	half-life at […] ([5]; human, plasma): 3.05 h
22 ± 0.18 µM	–	–	CC(C)[C@H](NC(=O)[C@H](CC(=O)O)NC(=O)[C@H](CO)NC(=O)[C@H](CCC(=O)O)NC(=O)CCOCCOCCOCCOCCOCCOCCOCCOCCOCCOCCOCCOCCOCCC(=O)N[C@@H](CCC(=O)O)C(=O)N[C@@H](CO)C(=O)N[C@@H](CC(=O)O)C(=O)N[C@H](C(=O)O)C(C)C)C(=O)O [Compound 84] (I: ESDV-OH / II: ESDV-OH; linker I:N-II:N via CO(CH2CH2O)13CH2CH2CO; C-terminus assumed)	–
37 µM	42 µM	–	CC(C)[C@H](NC(=O)[C@H](C)NC(=O)[C@@H](N)[C@@H](C)O)C(=O)O [TAV (49), TAV] (H-Thr-Ala-Val-OH; N-terminus and C-terminus assumed)	fold increase in Ki (loss of affinity) compared to NR2B peptide (1), PDZ2 [1]: ~9 fold; fold increase in Ki (loss of affinity) compared to NR2B peptide (1), PDZ1 [3]: ca. 2 fold
–	7 ± 0.28 µM	–	CCCN[C@@H](CCC(=O)O)C(=O)N[C@H](C(=O)N[C@@H](C)C(=O)N[C@H](C(=O)O)C(C)C)[C@@H](C)O [Compound 53, N-Propyl-ETAV]	–
